Test results published in patent US9573938B2 (priority 2012, dated 2017).
Values joined by “and” are separate entries in the source; they are usually repeats but may differ in a detail not shown here. Equal values may be shown once. Read-outs that look alike come from different tables or passages of the source.

Legend:
[1] = target: 2009 H1N1 influenza A endonuclease (PAN domain) (Influenza A virus, UniProt C3W5S0); assay: biochemical; design: species or system Influenza A (pandemic 2009 H1N1); conditions: fluorescence change over time at 37 degrees Celsius
[2] = IC50 (uM) using either 500 nM or 50 nM enzyme
[3] = 500 nM or 50 nM enzyme, read-out: IC50 (uM) using either 500 nM or 50 nM enzyme

| Structure (SMILES) | IC50 [1, 2] | IC50 [1, 3] [µM] | melting point [°C] |
| --- | --- | --- | --- |
| NC(=O)c1cccc(-c2cc(O)c(=O)[nH]c2-c2cccc(C(N)=O)c2)c1 | 0.11 µM |  |  |
| NC(=O)c1ccc(-c2cc(O)c(=O)[nH]c2-c2ccc(C(N)=O)cc2)cc1 | 0.23 µM |  |  |
| O=c1[nH]c(-c2cccc(-c3nnn[nH]3)c2)ncc1O [2-(3-(1H-Tetrazol-5-yl)phenyl)-5-hydroxypyrimidin-4(3H)-one] |  | 0.48 |  |
| O=c1[nH]c(-c2ccc(-c3nnn[nH]3)cc2)ncc1O [2-(4-(1H-Tetrazol-5-yl)phenyl)-5-hydroxypyrimidin-4(3H)-one] |  | 0.15 |  |
| O=c1[nH]c(-c2ccc(F)cc2)ncc1O [2-(4-Fluorophenyl)-5-hydroxypyrimidin-4(3H)-one] |  | 0.58 | 252 to 254 |
| O=C(O)c1cccc(-c2cc(O)c(=O)[nH]c2-c2cccc(C(=O)O)c2)c1 [3,3′-(5-Hydroxy-6-oxo-1,6-dihydropyridine-2,3-diyl)dibenzoic acid] | 0.7 µM |  |  |
| O=C(O)c1cccc(-c2cc(O)c(=O)[nH]c2-c2ccc(F)cc2)c1 [3-(2-(4-Fluorophenyl)-5-hydroxy-6-oxo-1,6-dihydropyridin-3-yl)benzoic acid] | 0.035 µM |  |  |
| N#Cc1cccc(-c2cc(O)c(=O)[nH]c2-c2ccc(F)cc2)c1 [3-(2-(4-Fluorophenyl)-5-hydroxy-6-oxo-1,6-dihydropyridin-3-yl)benzonitrile] | 0.049 µM |  |  |
| O=C(O)c1cccc(-c2c[nH]c(=O)c(O)c2)c1 [3-(5-Hydroxy-6-oxo-1,6-dihydropyridin-3-yl)benzoic acid] | 1.79 µM |  |  |
| N#Cc1cccc(-c2ncc(O)c(=O)[nH]2)c1 [3-(5-Hydroxy-6-oxo-1,6-dihydropyrimidin-2-yl)benzonitrile] |  | 0.25 |  |
| O=c1[nH]c(-c2ccc([N+](=O)[O-])cc2)c(-c2ccc([N+](=O)[O-])cc2)cc1O [3-Hydroxy-5,6-bis(4-nitrophenyl)pyridin-2(1H)-one] | 0.72 µM |  |  |
| O=c1[nH]c(-c2ccc(C(F)(F)F)cc2)ccc1O [3-Hydroxy-6-(4-(trifluoromethyl)phenyl)pyridin-2(1H)-one] | 0.4 µM |  |  |
| COc1ccc(-c2ccc(O)c(=O)[nH]2)cc1 [3-Hydroxy-6-(4-methoxyphenyl)pyridin-2(1H)-one] | 1.2 µM |  |  |
| O=C(O)c1ccc(-c2cc(O)c(=O)[nH]c2-c2ccc(C(=O)O)cc2)cc1 [4,4′-(5-hydroxy-6-oxo-1,6-dihydropyridine-2,3-diyl)dibenzoic acid] | 0.9 µM |  |  |
| N#Cc1ccc(-c2cc(O)c(=O)[nH]n2)cc1 [4-(5-Hydroxy-6-oxo-1,6-dihydropyridazin-3-yl)benzonitrile] |  | 9.3 | 305 to 307 |
| O=C(O)c1ccc(-c2c[nH]c(=O)c(O)c2)cc1 [4-(5-Hydroxy-6-oxo-1,6-dihydropyridin-3-yl)benzoic acid] | 0.51 µM |  |  |
| N#Cc1ccc(-c2ncc(O)c(=O)[nH]2)cc1 [4-(5-Hydroxy-6-oxo-1,6-dihydropyrimidin-2-yl)benzonitrile] |  | 0.52 |  |
| N#Cc1ccc(Nc2cc(O)c(=O)[nH]c2-c2ccc(F)cc2)cc1 [4-((2-(4-Fluorophenyl)-5-hydroxy-6-oxo-1,6-dihydropyridin-3-yl)amino)benzonitrile] | 1 µM |  |  |
| O=c1[nH]c(Br)c(Br)cc1O [5,6-Dibromo-3-hydroxypyridin-2(1H)-one] | 1.5 µM |  |  |
| O=c1[nH]c(-c2cccc(F)c2)c(-c2cccc(F)c2)cc1O [5,6-bis(3-Fluorophenyl)-3-hydroxypyridin-2(1H)-one] | 0.044 µM |  |  |
| N#Cc1ccc(-c2cc(O)c(=O)[nH]c2-c2ccc(C#N)cc2)cc1 [5,6-bis(4-Cyanophenyl)-3-hydroxypyridin-2(1H)-one] | 0.1 µM |  | 159 to 162 |
| O=c1[nH]c(-c2ccc(F)cc2)c(-c2ccc(F)cc2)cc1O [5,6-bis(4-Fluorophenyl)-3-hydroxypyridin-2(1H)-one] |  |  | 152 to 157 |
| O=c1[nH]c(-c2ccccc2)c(-c2ccccc2)cc1O [5,6-bis(phenyl)-3-hydroxypyridin-2(1H)-one] | 0.12 µM and 0.047 µM |  | 249 to 255 |
| O=c1[nH]c(-c2ccc(-c3nnn[nH]3)cc2)c(-c2ccc(-c3nnn[nH]3)cc2)cc1O [5,6-bis[4-(1H-Tetrazol-5-yl)phenyl]-3-hydroxypyridin-2(1H)-one] | 0.29 µM |  | 180 to 182 |
| O=c1[nH]c(-c2ccc(F)cc2)c(-c2cccc(-c3nnn[nH]3)c2)cc1O [5-(3-(1H-Tetrazol-5-yl)phenyl)-6-(4-fluorophenyl)-3-hydroxypyridin-2(1H)-one] | 0.034 µM |  |  |
| O=c1[nH]cc(-c2cccc(F)c2)cc1O [5-(3-Fluorophenyl-3-hydroxypyridin-2(1H)-one] | 0.74 µM |  |  |
| N#Cc1ccc(-c2cc(O)c(=O)[nH]c2-c2ccc(F)cc2)cc1 [5-(4-Cyanophenyl)-6-(4-fluorophenyl)-3-hydroxypyridin-2(1H)-one] | 0.136 µM |  | 255 to 257 |

| Structure (SMILES) | IC50 [1, 2] | IC50 [1, 3] [µM] | melting point [°C] |
| --- | --- | --- | --- |
| O=c1[nH]cc(Cc2ccc(F)cc2)cc1O [5-(4-Fluorobenzyl)-3-hydroxypyridin-2(1H)-one] | 8.6 µM |  |  |
| O=c1[nH]cc(-c2ccc(F)cc2)cc1O [5-(4-Fluorophenyl)-3-hydroxypyridin-2(1H)-one] |  | 0.73 |  |
| O=c1[nH]ncc(-c2ccc(F)cc2)c1O [5-(4-Fluorophenyl)-4-hydroxypyridazin-3(2H)-one] | > 200 µM |  | 274 to 276 |
| N#Cc1ccc(-c2[nH]c(=O)c(O)cc2-c2ccc(F)cc2)cc1 [5-(4-Fluorophenyl)-6-(4-cyanophenyl)-3-hydroxypyridin-2(1H)-one] | 0.054 µM |  | 255 to 258 |
| N#Cc1ccc(-c2c[nH]c(=O)c(O)c2)cc1 [5-(p-Cyanophenyl-3-hydroxypyridin-2(1H)-one] | 6.07 µM |  |  |
| O=c1[nH]cc(Br)cc1O [5-Bromo-3-hydroxypyridin-2(1H)-one] | 5 µM |  |  |
| O=c1[nH]cc(Cl)cc1O [5-Chloro-3-hydroxypyridin-2(1H)-one] | 5 µM |  |  |
| O=c1[nH]cc(C2CCCCC2)cc1O [5-Cyclohexyl-3-hydroxypyridin-2(1H)-one] | 2.1 µM |  |  |
| O=c1[nH]cc(-c2ccccc2)cc1O [5-Phenyl-3-hydroxypyridin-2(1H)-one] | > 10 µM |  | 175 to 177 |
| O=c1[nH]cc(-c2cccc(-c3nnn[nH]3)c2)cc1O [5-[3-(1H-Tetrazol-5-yl)phenyl]-3-hydroxypyridin-2(1H)-one] | 0.85 µM |  |  |
| O=c1[nH]cc(-c2ccc(-c3nnn[nH]3)cc2)cc1O [5-[4-(1H-Tetrazol-5-yl)phenyl]-3-hydroxypyridin-2(1H)-one] | 0.37 µM |  |  |
| O=c1[nH]c(-c2ccc(F)cc2)c(-c2ccc(-c3nnn[nH]3)cc2)cc1O [5-[4-(1H-Tetrazol-5-yl)phenyl]-6-(4-fluorophenyl)-3-hydroxypyridin-2(1H)-one] |  |  | 185 to 188 |
| O=c1[nH]c(-c2ccc(O)c(O)c2)ccc1O [6-(3,4-Dihydroxyphenyl)-3-hydroxypyridin-2(1H)-one] | 0.6 µM |  |  |
| O=c1[nH]c(-c2cccc(F)c2)ccc1O [6-(3-Fluorophenyl)-3-hydroxypyridin-2(1H)-one] | 0.53 µM |  |  |
| COc1cccc(-c2ccc(O)c(=O)[nH]2)c1 [6-(3-Methoxyphenyl)-3-hydroxypyridin-2(1H)one] | 0.54 µM |  |  |
| O=c1[nH]nc(-c2ccc(-c3nnn[nH]3)cc2)cc1O [6-(4-(1H-Tetrazol-5-yl)phenyl)-4-hydroxypyridazin-3(2H)-one] |  | 3 |  |
| O=c1[nH]c(-c2ccc(-c3nnn[nH]3)cc2)c(-c2ccc(F)cc2)cc1O [6-(4-(1H-Tetrazol-5-yl)phenyl)-5-(4-fluorophenyl)-3-hydroxypyridin-2(1H)-one] | 0.018 µM |  |  |
| CC(C)(C)c1ccc(-c2ccc(O)c(=O)[nH]2)cc1 [6-(4-(tert-Butyl)phenyl)-3-hydroxypyridin-2(1H)-one] | 1.6 µM |  |  |
| N#Cc1ccc(-c2ccc(O)c(=O)[nH]2)cc1 [6-(4-Cyanophenyl-3-hydroxypyridin-2(1H)-one] | 1.2 µM |  |  |
| O=c1[nH]c(-c2ccc(F)cc2)ccc1O [6-(4-Fluoro-phenyl)-3-hydroxypyridin-2(1H)-one] |  | 0.43 |  |
| O=c1[nH]nc(-c2ccc(F)cc2)cc1O [6-(4-Fluorophenyl)-4-hydroxypyridazin-3(2H)-one] |  | 6 | 281 to 283 |
| O=c1[nH]cnc(-c2ccc(F)cc2)c1O [6-(4-Fluorophenyl)-5-hydroxypyrimidin-4(3H)-one] | 193 µM |  | 285 to 287 |
| O=c1[nH]c(C2=CCCCC2)ccc1O [6-(Cyclohex-1-en-1-yl)-3-hydroxypyridin-2(1H)-one] | 0.75 µM |  |  |
| O=c1[nH]c(Cc2ccc(-c3ccccc3)cc2)c(-c2ccc(F)cc2)cc1O [6-([1,1′-Biphenyl]-4-ylmethyl)-5-(4-fluorophenyl)-3-hydroxypyridin-2(1H)-one] | 0.12 µM |  |  |
| O=c1[nH]c(Br)c(-c2ccc(F)cc2)cc1O [6-Bromo-5-(4-fluorophenyl)-3-hydroxypyridin-2(1H)-one] | 4.2 µM |  |  |
| O=c1[nH]c(C2CCCCC2)ccc1O [6-Cyclohexyl-3-hydroxypyridin-2(1H)-one] | 2.5 µM |  |  |
| O=c1[nH]c(-c2ccc(-c3nnn[nH]3)cc2)ccc1O [6-[4-(1H-tetrazol-5-yl)phenyl]-3-hydroxypyridin-2(1H)-one] | 0.85 µM |  |  |
